Laboratory results as given in patent publication US5385831A, “Method for producing a mammalian G protein coupled glutamate receptor” (priority 1993, dated 1995).

Key:
[1] = system: glutamate G protein coupled receptor; assay: Voltage-clamp assay of antagonist inhibition of glutamic acid-evoked current in injected oocytes; type: cell-based, rat; conditions: 1 mM DL-AP3
Description: Voltage clamp assays were also carried out on injected oocytes to measure the inhibition by the putative glutamate G protein coupled receptor antagonist, 2-amino-3-phosphonopropionic acid (AP3).

[2] = target: T1, GluG R encoded by clone 45-A (Rattus norvegicus, UniProt P23385); assay: Voltage-clamp assay of L-glutamic acid analogs at saturating concentrations in injected oocytes; type: cell-based; parameters: expressed in transfected cells; host or cells: Xenopus oocytes injected with in vitro transcribed (T7, pVEGT') clone 45-A RNA
T1 sequence (P23385 19-1199): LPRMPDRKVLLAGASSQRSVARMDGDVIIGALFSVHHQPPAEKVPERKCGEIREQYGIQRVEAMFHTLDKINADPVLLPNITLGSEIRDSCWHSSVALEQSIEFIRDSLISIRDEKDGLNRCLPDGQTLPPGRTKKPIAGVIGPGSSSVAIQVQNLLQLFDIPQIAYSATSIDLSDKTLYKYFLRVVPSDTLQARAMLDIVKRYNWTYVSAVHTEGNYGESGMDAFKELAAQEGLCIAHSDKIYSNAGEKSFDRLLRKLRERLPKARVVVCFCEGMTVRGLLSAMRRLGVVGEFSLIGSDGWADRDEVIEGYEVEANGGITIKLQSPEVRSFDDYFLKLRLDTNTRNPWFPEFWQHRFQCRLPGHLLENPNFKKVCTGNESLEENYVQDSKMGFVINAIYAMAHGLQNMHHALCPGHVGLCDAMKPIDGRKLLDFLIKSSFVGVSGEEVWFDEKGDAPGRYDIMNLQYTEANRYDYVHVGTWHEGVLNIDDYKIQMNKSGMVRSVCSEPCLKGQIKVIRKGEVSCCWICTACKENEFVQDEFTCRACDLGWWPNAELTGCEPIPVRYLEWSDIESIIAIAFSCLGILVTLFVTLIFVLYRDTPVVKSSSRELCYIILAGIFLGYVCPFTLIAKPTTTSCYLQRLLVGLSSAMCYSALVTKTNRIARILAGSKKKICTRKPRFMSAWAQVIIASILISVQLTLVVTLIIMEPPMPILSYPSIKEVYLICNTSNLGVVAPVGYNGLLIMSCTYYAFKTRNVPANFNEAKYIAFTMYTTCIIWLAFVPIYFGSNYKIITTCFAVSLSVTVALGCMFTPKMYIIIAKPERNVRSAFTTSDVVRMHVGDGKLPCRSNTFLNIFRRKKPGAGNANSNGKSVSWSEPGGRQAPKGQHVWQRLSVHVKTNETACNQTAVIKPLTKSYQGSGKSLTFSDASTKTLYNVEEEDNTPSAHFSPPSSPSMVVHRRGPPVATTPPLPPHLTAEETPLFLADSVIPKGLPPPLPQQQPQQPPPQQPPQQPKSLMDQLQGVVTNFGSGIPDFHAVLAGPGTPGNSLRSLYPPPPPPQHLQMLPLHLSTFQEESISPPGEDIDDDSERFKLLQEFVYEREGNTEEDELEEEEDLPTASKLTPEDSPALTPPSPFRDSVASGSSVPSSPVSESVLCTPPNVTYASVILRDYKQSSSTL

[3] = target: T1, GluG R encoded by clone 45-A; conditions: read-out: Glutamate Analog Potencies (EC50); Xenopus oocytes injected with 45-A RNA; responses normalized to subsequent response to 100 μM L-glutamic acid
GluG R = assay: Voltage-clamp assay of oocytes injected with RNA from rat cerebellum cDNA library pools; type: cell-based
Description: Plasmid DNA prepared from each of the 10 pools of 100,000 clones, which in total represented one sublibrary of one million clones of the cerebellum cDNA library, was purified by cesium chloride gradient ultracentrifugation. The DNA was transcribed in vitro with T7 RNA polymerase (Pharmacia) in the presence of capped nucleotide (GpppG, Pharamcia). […] The transcription reaction tubes were set up by adding 12 μl of 5× transcription buffer (Stratagene Cloning Systems, La Jolla, Calif.), 3 μl each of 10 mM ATP, CTP, GTP, and UTP, 6 μl of 10 mM GpppG (Pharmacia), 6 μl of 1 mg/ml BSA, 3 μl of 200 mM DTT, 1.5 μl of 40 U/μl RNasin (ProMega Biotech, Madison, Wis.), 8.5 μl of water, 10 μl of cDNA containing 5 to 10 μg DNA, and 1 μl of 70 U/μl T7 RNA polymerase. […] Forty microliters of water was added to the radiolabeled reactions, and 1 μl was removed from each sample and counted to determine total counts. […] The samples were centrifuged to collect the RNA and the RNA pellets were counted to determine the counts incorporated into RNA. […]
The RNA from each of the 10 sublibraries were injected into oocytes as described above and translation was allowed for four days. Expression of GluG R activity was assessed by voltage-clamp assay as described above. […]

## NC(CP(=O)(O)O)C(=O)O (racemic) [DL-AP3, 2-amino-3-phosphonopropionic acid]
[1]
  current evoked by 10 μM glutamic acid, reduced to % of the control: 59.3±7.3%

## Cc1onc(O)c1CC(N)C(=O)O (stereo not drawn) [AMPA, α-amino-3-hydroxy-5-methyl-isoxazole-4-propionic acid]
[2]; 100 μM
  response normalized to a subsequent response to 100 μM L-glutamate (effective/ineffective): ineffective

## NC(CCP(=O)(O)O)C(=O)O (stereo not drawn) [APB, 2-amino-4-phosphonobytyric acid]
[2]; 100 μM
  response normalized to a subsequent response to 100 μM L-glutamate (effective/ineffective): ineffective

## N[C@H](C(=O)O)c1cc(=O)[nH]o1 [Ibotenic acid, ibotenic acid]
[3]
  EC50: 32.4 µM

## CN[C@H](CC(=O)O)C(=O)O [NMDA, N-methyl-D-aspartic acid]
[2]; 100 μM NMDA + 10 μM glycine
  response normalized to a subsequent response to 100 μM L-glutamate (effective/ineffective): ineffective

## N[C@@H](Cn1oc(=O)[nH]c1=O)C(=O)O [Quisqualic acid, quisqualic acid]
GluG R; oocyte injected with approximately 100 ng RNA from subfractionated pool of 14,000 colonies, estimated from a digital panel meter
  peak current in response to quisqualate: approximately 1300 nA
GluG R; sublibrary pool Z93-1.9 (100,000 clones)
  signal with administration of quisqualate to the oocyte: produced a signal

## N[C@@H](CC(=O)O)C(=O)O [aspartic acid]
[2]; 1 mM
  response normalized to a subsequent response to 100 μM L-glutamate (effective/ineffective): ineffective

## C=C(C)[C@H]1CN[C@H](C(=O)O)[C@H]1CC(=O)O [kainic acid]
[2]; 1 mM
  response normalized to a subsequent response to 100 μM L-glutamate (effective/ineffective): ineffective
